Active and inactive are the calls of the source.
What was measured:
[1] = molecular target: T1, Mannose-6-phosphate isomerase (Homo sapiens, UniProt P34949); assay: phosphomannose isomerase inhibition – biochemical, fluorescence intensity, confirmation (AID 1535)
T1 sequence (P34949 whole entry): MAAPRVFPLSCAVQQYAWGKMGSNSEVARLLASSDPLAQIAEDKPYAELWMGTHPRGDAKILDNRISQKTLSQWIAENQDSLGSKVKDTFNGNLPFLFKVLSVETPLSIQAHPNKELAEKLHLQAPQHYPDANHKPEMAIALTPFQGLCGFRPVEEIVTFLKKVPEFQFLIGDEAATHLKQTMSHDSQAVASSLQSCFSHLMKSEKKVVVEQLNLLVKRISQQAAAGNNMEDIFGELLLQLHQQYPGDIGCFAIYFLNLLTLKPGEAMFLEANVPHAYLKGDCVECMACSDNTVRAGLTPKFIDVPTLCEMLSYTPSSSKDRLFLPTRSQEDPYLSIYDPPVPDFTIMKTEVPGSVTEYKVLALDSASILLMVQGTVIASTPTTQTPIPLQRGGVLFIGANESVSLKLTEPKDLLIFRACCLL

[2] = NIH-3T3 fibroblast cytotoxicity, dose response, cytotoxicity control, cell-based, fluorescence, Alamar Blue, secondary assay (AID 2327); type: functional;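 note: NIH-3T3 mouse fibroblasts cultured with fluconazole at 8 µg/mL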
Exodeoxyribonuclease V = molecular target: T2, Exodeoxyribonuclease V (Escherichia coli (strain K12), UniProt P04993+P07648+P08394); assay: RecBCD inhibition via phage-restricted bacterial growth – absorbance, V66 E. coli, mutant T4 phage, counter-screen for AddAB inhibitor project, dose response (AID 492957); type: functional, cell-based, Escherichia coli str. K-12 substr. MG1655
T2 sequence (P04993 whole entry): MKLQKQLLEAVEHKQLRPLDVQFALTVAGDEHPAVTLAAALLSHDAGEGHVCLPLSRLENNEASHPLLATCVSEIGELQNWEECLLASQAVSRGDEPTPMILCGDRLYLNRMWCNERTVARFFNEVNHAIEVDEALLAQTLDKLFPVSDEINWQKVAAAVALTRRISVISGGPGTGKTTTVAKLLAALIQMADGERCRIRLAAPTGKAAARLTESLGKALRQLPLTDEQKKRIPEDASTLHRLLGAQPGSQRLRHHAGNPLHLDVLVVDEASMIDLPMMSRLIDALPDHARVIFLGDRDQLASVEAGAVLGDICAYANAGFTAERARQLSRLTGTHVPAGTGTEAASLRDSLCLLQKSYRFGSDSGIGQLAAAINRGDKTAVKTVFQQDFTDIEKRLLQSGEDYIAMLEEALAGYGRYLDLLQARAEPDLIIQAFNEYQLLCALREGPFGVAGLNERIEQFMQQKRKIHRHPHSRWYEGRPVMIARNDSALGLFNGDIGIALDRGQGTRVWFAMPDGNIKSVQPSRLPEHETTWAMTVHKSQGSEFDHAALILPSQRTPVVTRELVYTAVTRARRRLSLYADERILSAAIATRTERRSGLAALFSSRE
T2 sequence (P07648 whole entry): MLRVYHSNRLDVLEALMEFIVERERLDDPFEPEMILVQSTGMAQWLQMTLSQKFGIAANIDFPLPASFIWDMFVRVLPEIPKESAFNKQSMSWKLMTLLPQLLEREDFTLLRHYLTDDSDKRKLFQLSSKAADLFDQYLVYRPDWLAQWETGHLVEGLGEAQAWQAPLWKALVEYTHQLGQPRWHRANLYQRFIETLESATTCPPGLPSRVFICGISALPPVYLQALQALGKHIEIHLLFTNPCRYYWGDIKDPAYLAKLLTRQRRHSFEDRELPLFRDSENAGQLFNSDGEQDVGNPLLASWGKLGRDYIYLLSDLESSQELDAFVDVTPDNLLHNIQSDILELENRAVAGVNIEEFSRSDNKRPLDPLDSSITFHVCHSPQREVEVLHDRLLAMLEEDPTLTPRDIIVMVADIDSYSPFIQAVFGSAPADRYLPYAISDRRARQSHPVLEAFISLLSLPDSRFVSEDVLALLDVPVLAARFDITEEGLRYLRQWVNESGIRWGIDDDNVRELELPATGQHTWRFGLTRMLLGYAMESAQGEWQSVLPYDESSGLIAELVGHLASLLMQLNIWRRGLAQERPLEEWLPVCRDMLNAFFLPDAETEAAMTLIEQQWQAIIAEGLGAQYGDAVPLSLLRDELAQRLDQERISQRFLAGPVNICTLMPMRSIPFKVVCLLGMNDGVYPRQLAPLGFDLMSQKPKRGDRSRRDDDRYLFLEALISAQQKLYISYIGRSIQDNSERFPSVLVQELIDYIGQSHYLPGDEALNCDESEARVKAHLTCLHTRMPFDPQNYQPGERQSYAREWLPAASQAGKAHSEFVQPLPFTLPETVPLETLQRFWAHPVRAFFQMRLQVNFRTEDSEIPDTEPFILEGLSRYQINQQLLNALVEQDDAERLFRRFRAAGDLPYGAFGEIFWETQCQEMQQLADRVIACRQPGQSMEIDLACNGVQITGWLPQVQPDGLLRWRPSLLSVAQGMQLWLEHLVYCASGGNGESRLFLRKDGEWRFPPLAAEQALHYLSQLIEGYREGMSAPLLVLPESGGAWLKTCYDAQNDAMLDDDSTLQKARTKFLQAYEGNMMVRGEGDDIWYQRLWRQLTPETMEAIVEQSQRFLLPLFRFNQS
T2 sequence (P08394 whole entry): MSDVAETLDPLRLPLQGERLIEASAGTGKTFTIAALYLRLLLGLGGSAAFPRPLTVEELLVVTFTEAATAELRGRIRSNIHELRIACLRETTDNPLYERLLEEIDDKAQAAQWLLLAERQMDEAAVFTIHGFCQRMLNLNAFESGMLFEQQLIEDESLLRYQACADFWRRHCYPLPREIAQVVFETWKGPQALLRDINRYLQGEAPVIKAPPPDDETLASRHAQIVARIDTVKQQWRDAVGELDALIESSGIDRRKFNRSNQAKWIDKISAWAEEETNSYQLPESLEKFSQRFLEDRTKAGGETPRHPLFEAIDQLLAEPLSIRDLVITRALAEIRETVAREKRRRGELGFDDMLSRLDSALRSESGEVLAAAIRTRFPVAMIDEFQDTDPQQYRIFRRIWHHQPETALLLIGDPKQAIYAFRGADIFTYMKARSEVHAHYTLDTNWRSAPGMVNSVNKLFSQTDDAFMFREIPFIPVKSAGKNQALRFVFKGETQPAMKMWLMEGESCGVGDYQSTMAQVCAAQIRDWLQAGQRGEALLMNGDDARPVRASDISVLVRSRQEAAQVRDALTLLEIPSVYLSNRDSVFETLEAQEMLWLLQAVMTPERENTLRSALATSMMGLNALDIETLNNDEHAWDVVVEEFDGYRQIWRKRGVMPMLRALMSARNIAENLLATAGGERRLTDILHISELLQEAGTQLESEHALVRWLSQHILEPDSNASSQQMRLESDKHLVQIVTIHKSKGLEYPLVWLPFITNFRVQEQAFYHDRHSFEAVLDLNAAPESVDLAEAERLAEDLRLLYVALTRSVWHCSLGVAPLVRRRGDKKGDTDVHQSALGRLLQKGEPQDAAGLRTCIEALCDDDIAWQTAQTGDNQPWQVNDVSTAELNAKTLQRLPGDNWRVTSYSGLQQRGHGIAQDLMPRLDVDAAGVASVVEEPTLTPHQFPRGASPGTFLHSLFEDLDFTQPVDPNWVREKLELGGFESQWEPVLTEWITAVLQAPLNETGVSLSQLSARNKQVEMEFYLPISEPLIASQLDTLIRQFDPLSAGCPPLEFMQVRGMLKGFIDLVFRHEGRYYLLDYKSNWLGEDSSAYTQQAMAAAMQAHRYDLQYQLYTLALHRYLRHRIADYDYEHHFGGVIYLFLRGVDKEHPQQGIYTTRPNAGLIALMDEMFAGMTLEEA

[3] = fluconazole-exposed Candida albicans growth modulators – fluorescence, retest, confirmation (AID 2467); type: functional, cell-based
[4] = Luminescence Cell-Based Dose Retest to Confirm Inhibitors of Cancer Stem Cells. [Related pubchem assays (depositor defined):AID2717, AID2721]; type: functional; conditions: Homo sapiens
[5] = Counterscreen for AddAB inhibitors: absorbance-based bacterial cell-based high throughput dose response assay for inhibitors of bacterial viability. [Related pubchem assays (depositor defined):AID435030, AID449728, AID449731, AID488942, AID488955, AID488956]; type: functional
[6] = molecular target: Intestinal-type alkaline phosphatase (Mus musculus, UniProt P24822); assay: PubChem AID 488874; type: functional
Intestinal-type alkaline phosphatase (Mus musculus, UniProt P24822), sequence (P24822 whole entry): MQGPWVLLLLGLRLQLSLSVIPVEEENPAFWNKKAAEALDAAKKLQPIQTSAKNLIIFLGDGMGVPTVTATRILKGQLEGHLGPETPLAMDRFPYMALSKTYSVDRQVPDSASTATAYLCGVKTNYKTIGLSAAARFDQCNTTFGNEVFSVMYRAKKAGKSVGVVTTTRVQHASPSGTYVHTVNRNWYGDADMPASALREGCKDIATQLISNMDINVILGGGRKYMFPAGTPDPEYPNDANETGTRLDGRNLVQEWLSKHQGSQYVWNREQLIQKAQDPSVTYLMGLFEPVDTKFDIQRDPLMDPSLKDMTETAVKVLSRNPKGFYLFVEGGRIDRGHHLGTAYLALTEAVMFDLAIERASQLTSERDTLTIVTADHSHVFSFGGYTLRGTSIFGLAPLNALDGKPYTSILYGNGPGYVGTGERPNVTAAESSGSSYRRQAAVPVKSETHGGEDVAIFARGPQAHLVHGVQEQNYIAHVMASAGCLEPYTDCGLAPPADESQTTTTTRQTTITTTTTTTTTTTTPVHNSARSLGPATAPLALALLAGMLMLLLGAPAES

[7] = molecular target: T3, Intestinal-type alkaline phosphatase (Homo sapiens, UniProt P09923); assay: activation of human intestinal alkaline phosphatase – biochemical, luminescent, uHTS hits, set 2, dose response (AID 488817); type: functional;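 note: potency of activators that raise enzyme activity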
T3 sequence (P09923 whole entry): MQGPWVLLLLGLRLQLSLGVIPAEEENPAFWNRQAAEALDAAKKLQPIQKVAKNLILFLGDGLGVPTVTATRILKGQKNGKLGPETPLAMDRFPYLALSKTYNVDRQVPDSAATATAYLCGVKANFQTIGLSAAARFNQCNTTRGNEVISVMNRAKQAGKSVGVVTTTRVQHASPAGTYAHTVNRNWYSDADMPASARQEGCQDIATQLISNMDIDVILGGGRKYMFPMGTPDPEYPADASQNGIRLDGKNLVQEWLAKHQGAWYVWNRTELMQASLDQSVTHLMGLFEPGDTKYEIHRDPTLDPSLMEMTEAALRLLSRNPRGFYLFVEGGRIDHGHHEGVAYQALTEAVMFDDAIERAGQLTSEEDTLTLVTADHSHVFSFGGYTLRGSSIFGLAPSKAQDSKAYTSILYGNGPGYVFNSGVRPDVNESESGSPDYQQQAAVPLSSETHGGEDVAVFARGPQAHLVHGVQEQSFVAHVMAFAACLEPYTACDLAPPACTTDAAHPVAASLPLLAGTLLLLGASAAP

Albumin = Albumin (Bos taurus, UniProt P02769); assay: Counterscreen for inhibitors of T-cell receptor (TCR)-CD3 interaction: Fluorescence-based biochemical high throughput dose response assay to identify inhibitors of T-cell receptor (TCR)-CD3 interaction using a TAMRA-labeled BSA probe.; type: functional
Albumin, sequence (P02769 whole entry): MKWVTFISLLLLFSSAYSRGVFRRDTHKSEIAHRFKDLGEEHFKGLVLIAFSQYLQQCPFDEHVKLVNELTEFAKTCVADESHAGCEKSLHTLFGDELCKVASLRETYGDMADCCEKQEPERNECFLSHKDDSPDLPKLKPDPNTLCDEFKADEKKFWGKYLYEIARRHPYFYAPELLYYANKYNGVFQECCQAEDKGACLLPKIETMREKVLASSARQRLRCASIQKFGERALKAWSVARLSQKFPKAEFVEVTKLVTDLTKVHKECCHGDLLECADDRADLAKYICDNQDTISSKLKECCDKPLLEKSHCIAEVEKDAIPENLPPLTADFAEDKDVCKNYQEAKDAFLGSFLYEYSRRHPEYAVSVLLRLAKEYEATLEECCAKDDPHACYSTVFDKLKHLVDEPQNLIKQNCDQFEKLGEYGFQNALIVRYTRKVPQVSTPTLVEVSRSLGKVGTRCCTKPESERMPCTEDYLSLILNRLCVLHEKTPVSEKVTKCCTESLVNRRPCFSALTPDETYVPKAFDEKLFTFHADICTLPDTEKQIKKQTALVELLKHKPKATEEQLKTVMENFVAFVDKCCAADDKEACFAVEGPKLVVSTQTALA

[8] = molecular target: T4, Alkaline phosphatase, tissue-nonspecific isozyme (Homo sapiens, UniProt P05186); assay: activation of tissue-nonspecific alkaline phosphatase – biochemical, TNAP isozyme, human IAP uHTS hits, selectivity assay for human IAP activator project, dose response (AID 488886); type: functional;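 note: potency of compounds raising TNAP activity as a selectivity check on IAP activators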
T4 sequence (P05186 whole entry): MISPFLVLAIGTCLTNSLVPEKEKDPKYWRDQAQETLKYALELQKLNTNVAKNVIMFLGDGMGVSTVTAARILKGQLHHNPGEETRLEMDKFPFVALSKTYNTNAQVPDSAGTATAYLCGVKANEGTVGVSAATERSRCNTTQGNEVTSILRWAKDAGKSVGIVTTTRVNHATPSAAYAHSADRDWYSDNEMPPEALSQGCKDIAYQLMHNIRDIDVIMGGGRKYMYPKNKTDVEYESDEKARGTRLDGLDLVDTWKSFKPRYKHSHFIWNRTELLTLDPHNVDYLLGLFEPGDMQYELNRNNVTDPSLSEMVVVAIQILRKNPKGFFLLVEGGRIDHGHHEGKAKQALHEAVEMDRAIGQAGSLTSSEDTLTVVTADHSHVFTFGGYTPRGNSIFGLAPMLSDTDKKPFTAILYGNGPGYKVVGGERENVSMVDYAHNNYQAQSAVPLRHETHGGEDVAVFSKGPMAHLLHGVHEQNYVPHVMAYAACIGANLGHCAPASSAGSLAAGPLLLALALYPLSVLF

[9] = molecular target: T3, Intestinal-type alkaline phosphatase; assay: human intestinal alkaline phosphatase activators, dose response, biochemical, luminescence, uHTS hits (AID 463120); type: functional
Phosphomannomutase 2 = molecular target: T5, Phosphomannomutase 2 (Homo sapiens, UniProt O15305); assay: Counter screen SAR assay for PMM2 inhibitors via a fluorescence intensity assay. [Related pubchem assays (depositor defined):AID1545, AID1574]
T5 sequence (O15305 whole entry): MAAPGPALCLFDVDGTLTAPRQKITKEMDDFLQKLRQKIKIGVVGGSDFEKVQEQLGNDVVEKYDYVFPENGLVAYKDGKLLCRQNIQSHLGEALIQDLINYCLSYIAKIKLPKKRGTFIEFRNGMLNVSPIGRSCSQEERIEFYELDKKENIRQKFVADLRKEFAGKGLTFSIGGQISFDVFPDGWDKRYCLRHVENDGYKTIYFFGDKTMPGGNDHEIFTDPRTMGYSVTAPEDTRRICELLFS

[10] = molecular target: T6, Zinc finger protein mex-5 (Caenorhabditis elegans, UniProt Q9XUB2); assay: potency of MEX-5 RNA-binding blockers – biochemical, C. elegans, fluorescence polarization, dose response (AID 1960)
T6 sequence (Q9XUB2 whole entry): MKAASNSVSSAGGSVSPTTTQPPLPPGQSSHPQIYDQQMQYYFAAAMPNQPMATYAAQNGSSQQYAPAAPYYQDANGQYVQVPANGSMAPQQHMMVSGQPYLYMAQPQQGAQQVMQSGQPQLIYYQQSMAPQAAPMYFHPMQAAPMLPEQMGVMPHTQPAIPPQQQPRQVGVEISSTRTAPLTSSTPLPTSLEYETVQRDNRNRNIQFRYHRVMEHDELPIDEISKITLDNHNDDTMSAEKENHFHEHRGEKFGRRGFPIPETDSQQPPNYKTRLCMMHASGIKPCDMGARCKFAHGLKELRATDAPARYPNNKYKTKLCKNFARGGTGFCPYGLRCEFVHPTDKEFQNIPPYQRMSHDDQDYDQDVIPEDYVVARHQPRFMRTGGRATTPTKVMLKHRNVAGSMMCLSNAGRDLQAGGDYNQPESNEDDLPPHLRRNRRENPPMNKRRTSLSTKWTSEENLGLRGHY

[11] = molecular target: T7, RNA-binding protein pos-1 (Caenorhabditis elegans, UniProt G5EF15); assay: disruptors of C. elegans POS-1 RNA interaction – biochemical, fluorescence polarization, dose response (AID 1964);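 note: purified POS-1 fused to maltose binding protein made in E. coli; potency of compounds blocking POS-1 binding to fluorescent RNA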
T7 sequence (G5EF15 whole entry): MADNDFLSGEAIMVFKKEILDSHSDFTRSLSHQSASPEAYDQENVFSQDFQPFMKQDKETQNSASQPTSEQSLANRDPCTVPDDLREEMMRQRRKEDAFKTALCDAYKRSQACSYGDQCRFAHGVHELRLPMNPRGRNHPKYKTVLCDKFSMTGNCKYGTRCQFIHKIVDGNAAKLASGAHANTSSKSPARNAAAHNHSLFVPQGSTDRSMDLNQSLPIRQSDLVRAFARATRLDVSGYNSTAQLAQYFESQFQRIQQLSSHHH
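Throughout, for AC50: cells exposed to compound for roughly 70 hours or longer before luminescence read.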

| Structure (SMILES) | IC50 [1] | IC50 (Exodeoxyribonuclease V) | IC50 [5] | IC50 [6] | EC50 [7] | EC50 [8] | EC50 [9] | further results |
| --- | --- | --- | --- | --- | --- | --- | --- | --- |
| Clc1nss/c1=N\c1ccccn1 | > 100 µM (inactive) | – | – | – | – | – | – | – |
| O=C1c2ccccc2NC(c2ccc(-c3cccc(Cl)c3)o2)N1O (stereo unspecified) | – | > 119 µM (inactive) | > 119 µM (inactive) | – | – | – | – | EC50 [2]: 33.4 µM (active); EC50 [3]: 1.91 µM (active); AC50 [4]: 4.45 µM (active) |
| O=Nc1nc(O)c(/C=C(\O)c2ccccc2)nc1NO | – | – | – | 35.5 µM (active) | 8.77 µM (active) | > 100 µM (inactive) | 8.21 µM (active) | IC50 (Albumin): > 94.2 µM (inactive) |
| Cc1ccc(/N=c2\ssnc2Cl)cc1C | 26.1 µM (active) | – | – | – | – | – | – | IC50 (Phosphomannomutase 2): 95.4 µM (active) |
| CCNc1c([N+](=O)[O-])c(=O)oc2ccccc12 | – | > 119 µM (inactive) | > 119 µM (inactive) | – | – | – | – | – |
| Cc1nc2c3ccccc3nc(NNC(=O)CCC(=O)N3CCCC(C)C3)n2n1 (stereo unspecified) | – | – | – | 64.2 µM (active) | 10.7 µM (active) | 12.2 µM (active) | 8.07 µM (active) | EC50 [10]: 21 µM (active); EC50 [11]: > 300 µM (not active) |

— ChEMBL document CHEMBL1201862, “PubChem BioAssay data set” (2004)
